Peptide text beside a SMILES is read from it.
Test system: 3T3-L1 Adipocytes
Test: Free fatty acid levels in cultured mouse 3T3-L1 adipocytes, isoproterenol stimulated (Example 2)
Assay type: cell-based
Details: test peptides 25 μM; isoproterenol 1 nM
Protocol: Mouse 3T3-L1 cells were seeded at a density between 1,000-20,000 cells per well on 96-well, 48-well, or 24-well plates in Pre-adipocyte Medium (Zen-Bio, Durham, N.C.) and grown to confluence at 37° C. in a humidified atmosphere of 5% CO2/95% air. Two days after confluence, cells were placed in Adipocyte Differentiation Medium (Zen-Bio, Durham, N.C.) and cultured for three additional days at 37° C. in a humidified atmosphere of 5% CO2/95% air. The culture media was then replaced with Adipocyte Maintenance Medium (Zen-Bio) and the cells were maintained for an additional 9-14 days at 37° C. in a humidified atmosphere of 5% CO2/95% air with partial medium replacement every other day. Following 12-17 days of differentiation, test peptides were added at a final concentration of 25 μM and incubated for 18-20 hours in Adipocyte Maintenance Medium at 37° C. in a humidified atmosphere of 5% CO2/95%. After 18-20 hours, the media was exchanged with fresh Adipocyte Maintenance Medium containing test peptides and incubated for 1 h at 37° C. in a humidified atmosphere of 5% CO2/95%. After 1 h media was exchanged with Assay Buffer (Zen-Bio) containing isoproterenol (1 nM) (added to all samples except untreated controls) and the test peptides. Cells were incubated for a further 3 hours at 37° C. in a humidified atmosphere of 5% CO2/95%. Free fatty acid concentrations in the media were determined using a Free Fatty Acid Assay Kit (Zen-Bio) according to the manufacturer's instructions using a plate reader (540 nm).
Absorbance values were corrected for untreated background and expressed relative to isoproterenol treated cells. Treatment with isoproterenol (1 nM) alone was used as the free fatty acid level stimulatory control. The relative standard deviation of the isoproterenol control was <10%. […] Free fatty acid levels for insulin (100 nM) treatment were <5% of the isoproterenol control value.

SMILES | Free Fatty Acid Levels in 3T3-L1 Adipocytes Expressed as a Percent of Isoproterenol Control: Percent of Control Value
CC[C@H](C)[C@H](NC(=O)[C@H](Cc1ccc(O)cc1)NC(=O)CNC(=O)[C@H](CCSC)NC(=O)[C@H](CCC(=O)O)NC(=O)[C@H](CCC(N)=O)NC(=O)[C@H](Cc1c[nH]c2ccccc12)NC(=O)[C@H](CCCNC(=N)N)NC(=O)[C@@H](N)CCSC)C(=O)N[C@@H](Cc1ccccc1)C(=O)N[C@@H](Cc1ccc(O)cc1)C(=O)N1CCC[C@H]1C(=O)N[C@@H](CCCNC(=N)N)C(=O)N[C@@H](CCCCN)C(=O)N[C@@H](CC(C)C)C(=O)N[C@H](C)C(=O)O [compound 151] (HELM PEPTIDE1{M.R.W.Q.E.M.G.Y.I.F.Y.P.R.K.L.[dA]}$$$$V2.0) | 47.9%
CC[C@H](C)[C@H](NC(=O)[C@H](Cc1ccc(O)cc1)NC(=O)CNC(=O)[C@H](CCSC)NC(=O)[C@H](CCC(=O)O)NC(=O)[C@H](CCC(N)=O)NC(=O)[C@H](Cc1c[nH]c2ccccc12)NC(=O)[C@H](CCCNC(=N)N)NC(=O)[C@@H](C)NC(C)=O)C(=O)N[C@@H](Cc1ccccc1)C(=O)N[C@@H](Cc1ccc(O)cc1)C(=O)N1CCC[C@H]1C(=O)N[C@@H](CCCNC(=N)N)C(=O)N[C@@H](CCCCN)C(=O)N[C@@H](CC(C)C)C(=O)N[C@@H](CCCNC(=N)N)C(N)=O [compound 152] (HELM PEPTIDE1{[ac].[dA].R.W.Q.E.M.G.Y.I.F.Y.P.R.K.L.R.[am]}$$$$V2.0) | 81.9%
CC[C@H](C)[C@H](NC(=O)[C@H](Cc1ccc(O)cc1)NC(=O)CNC(=O)[C@H](CCSC)NC(=O)[C@H](CCC(=O)O)NC(=O)[C@H](CCC(N)=O)NC(=O)[C@H](Cc1c[nH]c2ccccc12)NC(=O)[C@@H](C)NC(=O)[C@H](CCSC)NC(C)=O)C(=O)N[C@@H](Cc1ccccc1)C(=O)N[C@@H](Cc1ccc(O)cc1)C(=O)N1CCC[C@H]1C(=O)N[C@@H](CCCNC(=N)N)C(=O)N[C@@H](CCCCN)C(=O)N[C@@H](CC(C)C)C(=O)N[C@@H](CCCNC(=N)N)C(N)=O [compound 153] (HELM PEPTIDE1{[ac].M.[dA].W.Q.E.M.G.Y.I.F.Y.P.R.K.L.R.[am]}$$$$V2.0) | 93.1%
CC[C@H](C)[C@H](NC(=O)[C@H](Cc1ccc(O)cc1)NC(=O)CNC(=O)[C@H](CCSC)NC(=O)[C@H](CCC(=O)O)NC(=O)[C@H](CCC(N)=O)NC(=O)[C@@H](C)NC(=O)[C@H](CCCNC(=N)N)NC(=O)[C@H](CCSC)NC(C)=O)C(=O)N[C@@H](Cc1ccccc1)C(=O)N[C@@H](Cc1ccc(O)cc1)C(=O)N1CCC[C@H]1C(=O)N[C@@H](CCCNC(=N)N)C(=O)N[C@@H](CCCCN)C(=O)N[C@@H](CC(C)C)C(=O)N[C@@H](CCCNC(=N)N)C(N)=O [compound 154] (HELM PEPTIDE1{[ac].M.R.[dA].Q.E.M.G.Y.I.F.Y.P.R.K.L.R.[am]}$$$$V2.0) | 95.7%
CC[C@H](C)[C@H](NC(=O)[C@H](Cc1ccc(O)cc1)NC(=O)CNC(=O)[C@H](CCSC)NC(=O)[C@H](CCC(=O)O)NC(=O)[C@@H](C)NC(=O)[C@H](Cc1c[nH]c2ccccc12)NC(=O)[C@H](CCCNC(=N)N)NC(=O)[C@H](CCSC)NC(C)=O)C(=O)N[C@@H](Cc1ccccc1)C(=O)N[C@@H](Cc1ccc(O)cc1)C(=O)N1CCC[C@H]1C(=O)N[C@@H](CCCNC(=N)N)C(=O)N[C@@H](CCCCN)C(=O)N[C@@H](CC(C)C)C(=O)N[C@@H](CCCNC(=N)N)C(N)=O [compound 155] (HELM PEPTIDE1{[ac].M.R.W.[dA].E.M.G.Y.I.F.Y.P.R.K.L.R.[am]}$$$$V2.0) | 90.1%
CC[C@H](C)[C@H](NC(=O)[C@H](Cc1ccc(O)cc1)NC(=O)CNC(=O)[C@H](CCSC)NC(=O)[C@@H](C)NC(=O)[C@H](CCC(N)=O)NC(=O)[C@H](Cc1c[nH]c2ccccc12)NC(=O)[C@H](CCCNC(=N)N)NC(=O)[C@H](CCSC)NC(C)=O)C(=O)N[C@@H](Cc1ccccc1)C(=O)N[C@@H](Cc1ccc(O)cc1)C(=O)N1CCC[C@H]1C(=O)N[C@@H](CCCNC(=N)N)C(=O)N[C@@H](CCCCN)C(=O)N[C@@H](CC(C)C)C(=O)N[C@@H](CCCNC(=N)N)C(N)=O [compound 156] (HELM PEPTIDE1{[ac].M.R.W.Q.[dA].M.G.Y.I.F.Y.P.R.K.L.R.[am]}$$$$V2.0) | 94.7%
CC[C@H](C)[C@H](NC(=O)[C@H](Cc1ccc(O)cc1)NC(=O)CNC(=O)[C@@H](C)NC(=O)[C@H](CCC(=O)O)NC(=O)[C@H](CCC(N)=O)NC(=O)[C@H](Cc1c[nH]c2ccccc12)NC(=O)[C@H](CCCNC(=N)N)NC(=O)[C@H](CCSC)NC(C)=O)C(=O)N[C@@H](Cc1ccccc1)C(=O)N[C@@H](Cc1ccc(O)cc1)C(=O)N1CCC[C@H]1C(=O)N[C@@H](CCCNC(=N)N)C(=O)N[C@@H](CCCCN)C(=O)N[C@@H](CC(C)C)C(=O)N[C@@H](CCCNC(=N)N)C(N)=O [compound 157] (HELM PEPTIDE1{[ac].M.R.W.Q.E.[dA].G.Y.I.F.Y.P.R.K.L.R.[am]}$$$$V2.0) | 85.0%
CC[C@H](C)[C@H](NC(=O)[C@@H](C)NC(=O)CNC(=O)[C@H](CCSC)NC(=O)[C@H](CCC(=O)O)NC(=O)[C@H](CCC(N)=O)NC(=O)[C@H](Cc1c[nH]c2ccccc12)NC(=O)[C@H](CCCNC(=N)N)NC(=O)[C@H](CCSC)NC(C)=O)C(=O)N[C@@H](Cc1ccccc1)C(=O)N[C@@H](Cc1ccc(O)cc1)C(=O)N1CCC[C@H]1C(=O)N[C@@H](CCCNC(=N)N)C(=O)N[C@@H](CCCCN)C(=O)N[C@@H](CC(C)C)C(=O)N[C@@H](CCCNC(=N)N)C(N)=O [compound 159] (HELM PEPTIDE1{[ac].M.R.W.Q.E.M.G.[dA].I.F.Y.P.R.K.L.R.[am]}$$$$V2.0) | 87.4%
CSCC[C@H](NC(C)=O)C(=O)N[C@@H](CCCNC(=N)N)C(=O)N[C@@H](Cc1c[nH]c2ccccc12)C(=O)N[C@@H](CCC(N)=O)C(=O)N[C@@H](CCC(=O)O)C(=O)N[C@@H](CCSC)C(=O)NCC(=O)N[C@@H](Cc1ccc(O)cc1)C(=O)N[C@H](C)C(=O)N[C@@H](Cc1ccccc1)C(=O)N[C@@H](Cc1ccc(O)cc1)C(=O)N1CCC[C@H]1C(=O)N[C@@H](CCCNC(=N)N)C(=O)N[C@@H](CCCCN)C(=O)N[C@@H](CC(C)C)C(=O)N[C@@H](CCCNC(=N)N)C(N)=O [compound 160] (HELM PEPTIDE1{[ac].M.R.W.Q.E.M.G.Y.[dA].F.Y.P.R.K.L.R.[am]}$$$$V2.0) | 87.1%
CC[C@H](C)[C@H](NC(=O)[C@H](Cc1ccc(O)cc1)NC(=O)CNC(=O)[C@H](CCSC)NC(=O)[C@H](CCC(=O)O)NC(=O)[C@H](CCC(N)=O)NC(=O)[C@H](Cc1c[nH]c2ccccc12)NC(=O)[C@H](CCCNC(=N)N)NC(=O)[C@H](CCSC)NC(C)=O)C(=O)N[C@H](C)C(=O)N[C@@H](Cc1ccc(O)cc1)C(=O)N1CCC[C@H]1C(=O)N[C@@H](CCCNC(=N)N)C(=O)N[C@@H](CCCCN)C(=O)N[C@@H](CC(C)C)C(=O)N[C@@H](CCCNC(=N)N)C(N)=O [compound 161] (HELM PEPTIDE1{[ac].M.R.W.Q.E.M.G.Y.I.[dA].Y.P.R.K.L.R.[am]}$$$$V2.0) | 83.7%
CC[C@H](C)[C@H](NC(=O)[C@H](Cc1ccc(O)cc1)NC(=O)CNC(=O)[C@H](CCSC)NC(=O)[C@H](CCC(=O)O)NC(=O)[C@H](CCC(N)=O)NC(=O)[C@H](Cc1c[nH]c2ccccc12)NC(=O)[C@H](CCCNC(=N)N)NC(=O)[C@H](CCSC)NC(C)=O)C(=O)N[C@@H](Cc1ccccc1)C(=O)N[C@H](C)C(=O)N1CCC[C@H]1C(=O)N[C@@H](CCCNC(=N)N)C(=O)N[C@@H](CCCCN)C(=O)N[C@@H](CC(C)C)C(=O)N[C@@H](CCCNC(=N)N)C(N)=O [compound 162] (HELM PEPTIDE1{[ac].M.R.W.Q.E.M.G.Y.I.F.[dA].P.R.K.L.R.[am]}$$$$V2.0) | 82.4%
CC[C@H](C)[C@H](NC(=O)[C@H](Cc1ccc(O)cc1)NC(=O)CNC(=O)[C@H](CCSC)NC(=O)[C@H](CCC(=O)O)NC(=O)[C@H](CCC(N)=O)NC(=O)[C@H](Cc1c[nH]c2ccccc12)NC(=O)[C@H](CCCNC(=N)N)NC(=O)[C@H](CCSC)NC(C)=O)C(=O)N[C@@H](Cc1ccccc1)C(=O)N[C@@H](Cc1ccc(O)cc1)C(=O)N[C@H](C)C(=O)N[C@@H](CCCNC(=N)N)C(=O)N[C@@H](CCCCN)C(=O)N[C@@H](CC(C)C)C(=O)N[C@@H](CCCNC(=N)N)C(N)=O [compound 163] (HELM PEPTIDE1{[ac].M.R.W.Q.E.M.G.Y.I.F.Y.[dA].R.K.L.R.[am]}$$$$V2.0) | 91.8%

— patent US11753445B2, “Therapeutic peptides” (COHBAR, INC., priority 2016, dated 2023)
